# From US20070253980A1, “New pharmaceutical composition from natural materials for regulating immunity, its preparation method and use” (priority 2006, published 2007)
# Columns and labels:
# [1] = tested on: C8166 cells; test: Cytotoxic effect on C8166 cells (MTT); type: cell-based; conditions: three days, one value per date of experiment
# [2] = tested on: C8166 cells; test: Protective experiment: survival rate of normal cells (MTT); type: cell-based; conditions: normal C8166 cells in protective experiment, three days
# Experimental: 50 µl medium was added into half of the holes on the culture plate and 50 µl diluted supernatant fluid of HIV-1, in which the value of M.O.I was 0.0089, was added into the other half of the holes on the culture plate. At the same time, the blank control holes without the drug (the negative control) were set and the control culture holes with positive drug AZT (the positive control) were set too. They were put into 5% CO2 incubator under 37 °C for three days. The survival rate of cells was determined by MTT method. […] The following formulae were used to calculate the survival rate of normal cells caused by the drug and the protective rate of the drug for HIV-1-infected cells. Survival rate of normal cells(%)=OD value of the experimental hole/OD value of negative control hole□100% Protective rate of infected cells(%)=(OD value of the experimental hole−OD value of positive control hole)/(OD value of negative control hole−OD value of positive control hole)□100%
smiles,measurement,setting,value
Cc1cn([C@H]2C[C@H](N=[N+]=[N-])[C@@H](CO)O2)c(=O)[nH]c1=O [AZT],TC50,[1],>50 µg/mL
same,TC50,[2],>50 µg/mL
